From PubChem BioAssay AID1963829 (Molecular Pharmacology Branch, DTP, NCI, 2024)

Test system: 935938-334-R-J1-PDC complex spheroid viability
Test: Anticancer human tumor 935938-334-R-J1-PDC patient-derived small intestine adenocarcinoma cell line growth inhibition [POLQ]
Conditions: for IC50: curve of first compound; for viability, T/C: stronger effect = lower value
Protocol: Multicellular complex tumor spheroid response to Polymerase (POL) inhibitors (novobiocin, ART-558, RP6685) in combination with a variety of drugs and investigational agents in selected tumor cell lines
The POL inhibitors (novobiocin, ART-558, and RP6685) were evaluated both individually and in combination with standard of care and investigational anticancer small molecules within a complex spheroid model of solid tumors. . Complex spheroids include a stromal component modeled by human endothelial cells (HUVEC) and fibroblasts modeled by human mesenchymal stem cells (MSCs). The concentration ranges selected for each drug and investigational agent were based upon clinically achievable concentrations if the clinical Cmax of the agent was known.
Compounds. The drugs and investigational agents: novobiocin (NSC847541), ART-558 (NSC835418), RP-6685 (NSC848927), peposertib (NSC802822), ceralasertib (NSC780249), elimusertib (NSC800525), camonsertib (NSC841442), AZD-1390 (NSC803789), olaparib (NSC753686), talazoparib (NSC767125), rucaparib (NSC756644), sotorasib (NSC818433), MRTX-1133 (NSC836407), SN-38 (NSC673596), topotecan (NSC609699), epotoside (NSC141540), doxorubicin (NSC123127), gemcitabine (NSC613327), 5-fluorouracil (NSC19893), paclitaxel (NSC125973), vemurafenib (NSC761431), MSA-2 (NSC828583), SN-011 (NSC837082), adavosertib (NSC754352), prexasertib (NSC758257), carboplatin (NSC241240) and oxaliplatin (NSC266046), were obtained from the National Cancer Institute (NCI) Developmental Therapeutics Program Chemical Repository (21). The FDA-approved anticancer drug set is available from the Developmental Therapeutics Program at https://dtp.cancer.gov/organization/dscb/obtaining/. […] The stock solutions were prepared in dimethyl sulfoxide (DMSO, Sigma-Aldrich, St. Louis, MO, cat. D2650), except for the platinum compounds which were prepared in saline (Quality Biological, Gaithersburg, MD, cat. 114-055-101), at 800-fold the tested concentration and stored at -70 degrees C prior to their use. All drugs and investigational agents were tested over a range starting from a high concentration at or near the clinical Cmax and decreasing in half-log increments. If the clinical Cmax for an agent had not been determined, the highest concentration tested was 10 microM, except for SN-38, which was tested at a high concentration of 1 microM.
Cell Culture. All cells were maintained in an incubator at 37 degrees C and 5% CO2 with 95% humidity. The PDC lines were cultured according to standard operating procedures established by the NCI PDMR (https://pdmr.cancer.gov). Table 3 of the manuscript, lists the cell lines along with the number of the three cell types plated to form the mct-spheroids and media for tumor cell growth. After thawing, all PDC lines, except 997537-175-T-J1-PDC and 415267-285-R-J2-PDC, were cultured in Matrigel-coated flasks prepared with a working solution of 1X Ham's F-12 nutrient mix, without supplementation (Thermo Fisher Scientific, cat. 11765054), 100 U/mL penicillin-streptomycin (Thermo Fisher Scientific, cat. 15140122), and 2.5% Matrigel (Corning Inc., Corning, NY, cat. 354248) for the first three passages. The two PDC lines 997537-175-T-J1-PDC and 415267-285-R-J2-PDC were cultured on uncoated flasks. The 857933-349-R-J2-PDC line was cultured in 6C/Colon 1B media containing advanced DMEM/F-12 (Thermo Fisher Scientific, cat. 12634028), 10 mM HEPES (Thermo Fisher Scientific, cat. 15630080), 1X GlutaMAX supplement (Thermo Fisher Scientific, cat. 35050061), 0.1 mg/mL primocin (InvivoGen, San Diego, CA, cat. ant-pm-2), 10% defined fetal bovine serum, heat inactivated (HyClone Laboratories Inc., Logan, UT, cat. SH30070.03HI), 50% L-WRN conditioned media (ATCC, cat. CRL-3276), 1.25 mM N-Acetyl-L-cysteine (Sigma-Aldrich, cat. A9165), 10 mM nicotinamide (Sigma-Aldrich, cat. N0636), 1X B-27 supplement (Thermo Fisher Scientific, cat. 17504044), 1X N-2 supplement (Thermo Fisher Scientific, cat. […]

[1] = second compound 0.0316 µM, first compound 0.0316 µM
[2] = second compound 0.0316 µM, first compound 0.1 µM
[3] = second compound 0.0316 µM, first compound 0.316 µM
[4] = second compound 0.0316 µM, first compound 1 µM
[5] = second compound 0.0316 µM, first compound 3.16 µM
[6] = second compound 0.0316 µM, first compound 10 µM
[7] = second compound 0.1 µM, first compound 0.0316 µM
[8] = second compound 0.1 µM, first compound 0.1 µM
[9] = second compound 0.1 µM, first compound 0.316 µM
[10] = second compound 0.1 µM, first compound 1 µM
[11] = second compound 0.1 µM, first compound 3.16 µM
[12] = second compound 0.1 µM, first compound 10 µM
[13] = second compound 0.316 µM, first compound 0.0316 µM
[14] = second compound 0.316 µM, first compound 0.1 µM
[15] = second compound 0.316 µM, first compound 0.316 µM
[16] = second compound 0.316 µM, first compound 1 µM
[17] = second compound 0.316 µM, first compound 3.16 µM
[18] = second compound 0.316 µM, first compound 10 µM
[19] = second compound 1 µM, first compound 0.0316 µM
[20] = second compound 1 µM, first compound 0.1 µM
[21] = second compound 1 µM, first compound 0.316 µM
[22] = second compound 1 µM, first compound 1 µM
[23] = second compound 1 µM, first compound 3.16 µM
[24] = second compound 1 µM, first compound 10 µM
[25] = second compound 3.16 µM, first compound 0.0316 µM
[26] = second compound 3.16 µM, first compound 0.1 µM
[27] = second compound 3.16 µM, first compound 0.316 µM
[28] = second compound 3.16 µM, first compound 1 µM
[29] = second compound 3.16 µM, first compound 3.16 µM
[30] = second compound 3.16 µM, first compound 10 µM
[31] = second compound 10 µM, first compound 0.0316 µM
[32] = second compound 10 µM, first compound 0.1 µM
[33] = second compound 10 µM, first compound 0.316 µM
[34] = second compound 10 µM, first compound 1 µM
[35] = second compound 10 µM, first compound 3.16 µM
[36] = second compound 10 µM, first compound 10 µM
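Note: spheroids exposed to drugs for seven days before viability read.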
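Throughout, for viability, T/C: 100% = DMSO vehicle control wells.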

In the case of `CNCc1ccc(-c2[nH]c3cc(F)cc4c3c2CCNC4=O)cc1` + Cc1cccc(N(C)C(=O)C2C(O)CCN2c2nc(C)cc(C(F)(F)F)c2C#N)c1, the IC50 (second compound 0.0316 µM) is reported as over 10 µM, the IC50 (second compound 0.1 µM) is reported as over 10 µM and the IC50 (second compound 0.316 µM) is reported as over 10 µM. For the same compound, the IC50 (second compound 1 µM) was over 10 µM, the IC50 (second compound 3.16 µM) was over 10 µM and the IC50 (second compound 10 µM) was over 10 µM. The viability, T/C [1] was 90.2%, the viability, T/C [2] was 97.7% and the viability, T/C [3] was 101%. It also gave a viability, T/C [4] of 115%, a viability, T/C [5] of 108% and a viability, T/C [6] of 81.8%. For the same compound, the viability, T/C [7] was 107%, the viability, T/C [8] was 64.9% and the viability, T/C [9] was 78.2%. For the same compound, the viability, T/C [10] was 94.9%, the viability, T/C [11] was 90.6% and the viability, T/C [12] was 76.8%. The viability, T/C [13] was 85.5%, the viability, T/C [14] was 94.5% and the viability, T/C [15] was 97.2%. The viability, T/C [16] was 97.2%, the viability, T/C [17] was 125% and the viability, T/C [18] was 99.9%. It also gave a viability, T/C [19] of 106%, a viability, T/C [20] of 78.6% and a viability, T/C [21] of 88.5%. It also gave a viability, T/C [22] of 100%, a viability, T/C [23] of 93.2% and a viability, T/C [24] of 112%. The viability, T/C [25] was 88.9%, the viability, T/C [26] was 118% and the viability, T/C [27] was 88.1%. The viability, T/C [28] was 102%, the viability, T/C [29] was 133% and the viability, T/C [30] was 99.5%. It also gave a viability, T/C [31] of 122%, a viability, T/C [32] of 80.7% and a viability, T/C [33] of 96.2%. It also gave a viability, T/C [34] of 83.2%, a viability, T/C [35] of 121% and a viability, T/C [36] of 102%.
`CC1COCCN1c1cc(C2(S(C)(=N)=O)CC2)nc(-c2ccnc3[nH]ccc23)n1` (centres undefined) + Cc1cccc(N(C)C(=O)C2C(O)CCN2c2nc(C)cc(C(F)(F)F)c2C#N)c1 showed an IC50 (second compound 0.0316 µM) of 2.89 µM, an IC50 (second compound 0.1 µM) of 3.05 µM and an IC50 (second compound 0.316 µM) of 2.44 µM. For the same compound, the IC50 (second compound 1 µM) was 2.52 µM, the IC50 (second compound 3.16 µM) was 1.57 µM and the IC50 (second compound 10 µM) was 2 µM. For the same compound, the viability, T/C [1] was 116%, the viability, T/C [2] was 91.8% and the viability, T/C [3] was 91.4%. For the same compound, the viability, T/C [4] was 96.2%, the viability, T/C [5] was 46.1% and the viability, T/C [6] was 21.4%. It also gave a viability, T/C [7] of 113%, a viability, T/C [8] of 109% and a viability, T/C [9] of 86.1%. The viability, T/C [10] was 84.5%, the viability, T/C [11] was 44.6% and the viability, T/C [12] was 20.2%. For the same compound, the viability, T/C [13] was 82.6%, the viability, T/C [14] was 110% and the viability, T/C [15] was 69.1%. It also gave a viability, T/C [16] of 88.1%, a viability, T/C [17] of 38.9% and a viability, T/C [18] of 19.9%. For the same compound, the viability, T/C [19] was 110%, the viability, T/C [20] was 89% and the viability, T/C [21] was 97.6%. It also gave a viability, T/C [22] of 70.1%, a viability, T/C [23] of 44.4% and a viability, T/C [24] of 21.8%. For the same compound, the viability, T/C [25] was 97.7%, the viability, T/C [26] was 112% and the viability, T/C [27] was 72.3%. It also gave a viability, T/C [28] of 62.9%, a viability, T/C [29] of 36.4% and a viability, T/C [30] of 23.5%. The viability, T/C [31] was 116%, the viability, T/C [32] was 104% and the viability, T/C [33] was 117%. It also gave a viability, T/C [34] of 68%, a viability, T/C [35] of 41.2% and a viability, T/C [36] of 20.1%.
